Biological target: human α-thrombin (Homo sapiens, UniProt P00734)
Test: Sub-library screen for active and permeable cyclic peptides (PAMPA plus thrombin inhibition)
Type: biochemical
Conditions: crude, slopes normalized to DMSO; for Residual thrombin activity: Top sample: PAMPA acceptor well after 14 h, 5 μM donor; for Residual thrombin activity: Equilibrated sample: donor sample diluted to theoretical equilibrium (1 μM in assay)
Procedure, shortened: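 Acylated cyclic peptides at 5 μM in PBS pH 7.4 with 5% DMSO were run through PAMPA for 14 h at room temperature. Acceptor wells and a diluted donor sample at 3 μM, representing maximum permeability, were preincubated 10 min with human α-thrombin (6 nM stock). Z-Gly-Gly-Arg-AMC (150 μM stock) fluorescence was then read for 30 min at 25 °C, and inhibition was taken against a no-peptide control.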

Structure (SMILES)	Residual thrombin activity: Top sample	Residual thrombin activity: Equilibrated sample
Cc1cccc(C[C@@H]2NC(=O)[C@@H](NC(=O)c3ccc(Cl)s3)CCSC/C=C/CSCCNC(=O)C[C@H]3CCCN3C2=O)c1 [C2-X37-L4]	90.6	77.5
Cc1cccc(C[C@@H]2NC(=O)[C@@H](NC(=O)c3ccc(Cl)s3)CCSCc3cccc(c3)CSCCNC(=O)C[C@H]3CCCN3C2=O)c1 [C2-X37-L5]	104.6	95.0
Cc1cccc(C[C@@H]2NC(=O)[C@@H](NC(=O)c3ccc(Cl)s3)CCSCc3ccccc3CSCCNC(=O)C[C@H]3CCCN3C2=O)c1 [C2-X37-L6]	97.5	96.9
Cc1cccc(C[C@@H]2NC(=O)[C@@H](NC(=O)c3ccc(Cl)s3)CCSCC(=O)CSCCNC(=O)C[C@H]3CCCN3C2=O)c1 [C2-X37-L7]	99.9	83.6
O=C1C[C@H]2CCCN2C(=O)[C@H](Cc2ccccc2)NC(=O)[C@@H](NC(=O)c2ccc(Cl)s2)CCCSCc2cccc(n2)CSCCN1 [C3-X5-L1]	64.7	75.1
O=C1C[C@H]2CCCN2C(=O)[C@H](Cc2ccccc2)NC(=O)[C@@H](NC(=O)c2ccc(Cl)s2)CCCSCCS(=O)(=O)CCSCCN1 [C3-X5-L2]	81.8	27.6
O=C1C[C@H]2CCCN2C(=O)[C@H](Cc2ccccc2)NC(=O)[C@@H](NC(=O)c2ccc(Cl)s2)CCCSCc2ccc(cc2)CSCCN1 [C3-X5-L3]	86.8	50.1
O=C1C[C@H]2CCCN2C(=O)[C@H](Cc2ccccc2)NC(=O)[C@@H](NC(=O)c2ccc(Cl)s2)CCCSC/C=C/CSCCN1 [C3-X5-L4]	55.8	36.8
O=C1C[C@H]2CCCN2C(=O)[C@H](Cc2ccccc2)NC(=O)[C@@H](NC(=O)c2ccc(Cl)s2)CCCSCc2cccc(c2)CSCCN1 [C3-X5-L5]	84.2	60.5
O=C1C[C@H]2CCCN2C(=O)[C@H](Cc2ccccc2)NC(=O)[C@@H](NC(=O)c2ccc(Cl)s2)CCCSCc2ccccc2CSCCN1 [C3-X5-L6]	74.4	55.6
O=C1CSCCC[C@H](NC(=O)c2ccc(Cl)s2)C(=O)N[C@@H](Cc2ccccc2)C(=O)N2CCC[C@@H]2CC(=O)NCCSC1 [C3-X5-L7]	73.4	33.5
O=C1C[C@H]2CCCN2C(=O)[C@@H](Cc2ccccc2)NC(=O)[C@@H](NC(=O)c2ccc(Cl)s2)CCCSCc2cccc(n2)CSCCN1 [C3-X31-L1]	96.1	92.4
O=C1C[C@H]2CCCN2C(=O)[C@@H](Cc2ccccc2)NC(=O)[C@@H](NC(=O)c2ccc(Cl)s2)CCCSCCS(=O)(=O)CCSCCN1 [C3-X31-L2]	103.5	93.7
O=C1C[C@H]2CCCN2C(=O)[C@@H](Cc2ccccc2)NC(=O)[C@@H](NC(=O)c2ccc(Cl)s2)CCCSCc2ccc(cc2)CSCCN1 [C3-X31-L3]	99.4	96.8
O=C1C[C@H]2CCCN2C(=O)[C@@H](Cc2ccccc2)NC(=O)[C@@H](NC(=O)c2ccc(Cl)s2)CCCSC/C=C/CSCCN1 [C3-X31-L4]	100.8	98.3
O=C1C[C@H]2CCCN2C(=O)[C@@H](Cc2ccccc2)NC(=O)[C@@H](NC(=O)c2ccc(Cl)s2)CCCSCc2cccc(c2)CSCCN1 [C3-X31-L5]	105.2	103.4
O=C1C[C@H]2CCCN2C(=O)[C@@H](Cc2ccccc2)NC(=O)[C@@H](NC(=O)c2ccc(Cl)s2)CCCSCc2ccccc2CSCCN1 [C3-X31-L6]	97.6	87.4
O=C1CSCCC[C@H](NC(=O)c2ccc(Cl)s2)C(=O)N[C@H](Cc2ccccc2)C(=O)N2CCC[C@@H]2CC(=O)NCCSC1 [C3-X31-L7]	102.1	99.4
CN1C(=O)[C@@H](NC(=O)c2ccc(Cl)s2)CCCSCc2cccc(n2)CSCCNC(=O)C[C@H]2CCCN2C(=O)[C@@H]1Cc1ccccc1 [C3-X32-L1]	99.5	98.5
CN1C(=O)[C@@H](NC(=O)c2ccc(Cl)s2)CCCSCCS(=O)(=O)CCSCCNC(=O)C[C@H]2CCCN2C(=O)[C@@H]1Cc1ccccc1 [C3-X32-L2]	103.4	103.4
CN1C(=O)[C@@H](NC(=O)c2ccc(Cl)s2)CCCSCc2ccc(cc2)CSCCNC(=O)C[C@H]2CCCN2C(=O)[C@@H]1Cc1ccccc1 [C3-X32-L3]	101.7	98.3

Structure (SMILES)	Residual thrombin activity: Top sample	Residual thrombin activity: Equilibrated sample
CN1C(=O)[C@@H](NC(=O)c2ccc(Cl)s2)CCCSC/C=C/CSCCNC(=O)C[C@H]2CCCN2C(=O)[C@@H]1Cc1ccccc1 [C3-X32-L4]	101.4	100.1
CN1C(=O)[C@@H](NC(=O)c2ccc(Cl)s2)CCCSCc2cccc(c2)CSCCNC(=O)C[C@H]2CCCN2C(=O)[C@@H]1Cc1ccccc1 [C3-X32-L5]	103.6	103.6
CN1C(=O)[C@@H](NC(=O)c2ccc(Cl)s2)CCCSCc2ccccc2CSCCNC(=O)C[C@H]2CCCN2C(=O)[C@@H]1Cc1ccccc1 [C3-X32-L6]	99.5	96.0
CN1C(=O)[C@@H](NC(=O)c2ccc(Cl)s2)CCCSCC(=O)CSCCNC(=O)C[C@H]2CCCN2C(=O)[C@@H]1Cc1ccccc1 [C3-X32-L7]	102.9	98.1
COc1ccc(C[C@@H]2NC(=O)[C@@H](NC(=O)c3ccc(Cl)s3)CCCSCc3cccc(n3)CSCCNC(=O)C[C@H]3CCCN3C2=O)cc1 [C3-X33-L1]	99.7	94.6
COc1ccc(C[C@@H]2NC(=O)[C@@H](NC(=O)c3ccc(Cl)s3)CCCSCCS(=O)(=O)CCSCCNC(=O)C[C@H]3CCCN3C2=O)cc1 [C3-X33-L2]	105.7	97.1
COc1ccc(C[C@@H]2NC(=O)[C@@H](NC(=O)c3ccc(Cl)s3)CCCSCc3ccc(cc3)CSCCNC(=O)C[C@H]3CCCN3C2=O)cc1 [C3-X33-L3]	102.2	103.1
COc1ccc(C[C@@H]2NC(=O)[C@@H](NC(=O)c3ccc(Cl)s3)CCCSC/C=C/CSCCNC(=O)C[C@H]3CCCN3C2=O)cc1 [C3-X33-L4]	105.1	97.8
COc1ccc(C[C@@H]2NC(=O)[C@@H](NC(=O)c3ccc(Cl)s3)CCCSCc3cccc(c3)CSCCNC(=O)C[C@H]3CCCN3C2=O)cc1 [C3-X33-L5]	101.3	103.0
COc1ccc(C[C@@H]2NC(=O)[C@@H](NC(=O)c3ccc(Cl)s3)CCCSCc3ccccc3CSCCNC(=O)C[C@H]3CCCN3C2=O)cc1 [C3-X33-L6]	95.1	92.6
COc1ccc(C[C@@H]2NC(=O)[C@@H](NC(=O)c3ccc(Cl)s3)CCCSCC(=O)CSCCNC(=O)C[C@H]3CCCN3C2=O)cc1 [C3-X33-L7]	103.1	99.9
O=C1C[C@H]2CCCN2C(=O)[C@H](Cc2ccc(Cl)cc2)NC(=O)[C@@H](NC(=O)c2ccc(Cl)s2)CCCSCc2cccc(n2)CSCCN1 [C3-X34-L1]	99.1	94.7
O=C1C[C@H]2CCCN2C(=O)[C@H](Cc2ccc(Cl)cc2)NC(=O)[C@@H](NC(=O)c2ccc(Cl)s2)CCCSCCS(=O)(=O)CCSCCN1 [C3-X34-L2]	98.4	94.5
O=C1C[C@H]2CCCN2C(=O)[C@H](Cc2ccc(Cl)cc2)NC(=O)[C@@H](NC(=O)c2ccc(Cl)s2)CCCSCc2ccc(cc2)CSCCN1 [C3-X34-L3]	101.2	96.4
O=C1C[C@H]2CCCN2C(=O)[C@H](Cc2ccc(Cl)cc2)NC(=O)[C@@H](NC(=O)c2ccc(Cl)s2)CCCSC/C=C/CSCCN1 [C3-X34-L4]	100.7	91.1
O=C1C[C@H]2CCCN2C(=O)[C@H](Cc2ccc(Cl)cc2)NC(=O)[C@@H](NC(=O)c2ccc(Cl)s2)CCCSCc2cccc(c2)CSCCN1 [C3-X34-L5]	103.1	94.9
O=C1C[C@H]2CCCN2C(=O)[C@H](Cc2ccc(Cl)cc2)NC(=O)[C@@H](NC(=O)c2ccc(Cl)s2)CCCSCc2ccccc2CSCCN1 [C3-X34-L6]	94.7	78.6
O=C1CSCCC[C@H](NC(=O)c2ccc(Cl)s2)C(=O)N[C@@H](Cc2ccc(Cl)cc2)C(=O)N2CCC[C@@H]2CC(=O)NCCSC1 [C3-X34-L7]	103.7	93.3
N#Cc1ccc(C[C@@H]2NC(=O)[C@@H](NC(=O)c3ccc(Cl)s3)CCCSCc3cccc(n3)CSCCNC(=O)C[C@H]3CCCN3C2=O)cc1 [C3-X35-L1]	93.2	95.8
N#Cc1ccc(C[C@@H]2NC(=O)[C@@H](NC(=O)c3ccc(Cl)s3)CCCSCCS(=O)(=O)CCSCCNC(=O)C[C@H]3CCCN3C2=O)cc1 [C3-X35-L2]	106.0	96.7

Source: PMC11062899, “De novo development of small cyclic peptides that are orally bioavailable” (Nature Chemical Biology, 2023)
